Assay results reported in publication PMC8272136, “Discovery of New Pyrazolopyridine, Furopyridine, and Pyridine Derivatives as CDK2 Inhibitors: Design, Synthesis, Docking Studies, and Anti-Proliferative Activity” (Molecules, 2021).
Where “and” joins values, the source holds several entries; their conditions need not be identical. Identical values can stand only once. Like-named read-outs stand apart in the source and are kept apart here.

Tests used:
[1] = test system: HCT-116 (human colorectal carcinoma) cells; assay: MTT cytotoxicity assay, HCT-116; type: cell-based; conditions: 48 h, read-out: IC50 (µM) ± SD HCT-116
Experimental: (§1) In this study, ten compounds were examined in vitro for their activities against HCT-116, MCF-7, HepG2, and A549 human cancer cells using the MTT assay. The percentages of intact cells were calculated and compared to those of the control. The activities of these compounds against the four cell lines were compared to the activity of doxorubicin as well. […] In order to study the efficacy of the synthesized compounds, a comparison of the cytotoxic effect of each compound has been related to the cytotoxicity of the reference drug as follows.
(§2) Cell cultures of HCT-116 (human colorectal carcinoma), MCF-7 (human breast adenocarcinoma), HepG2 (human hepatocellular carcinoma), and A549 (human lung carcinoma) cell lines were purchased from the American Type Culture Collection (Rockville, MD, USA) and maintained in DMEM medium that was supplemented with 10% heat-inactivated FBS (fetal bovine serum), 100 U/mL penicillin, and […] streptomycin. The cells were grown at 37 °C in a humidified atmosphere of 5% CO2.
(§3) The anticancer activity against HCT-116, HepG2, A549, and MCF-7 human cancer cell lines was estimated using the 3-[4,5-dimethyl-2-thiazolyl)-2,5-diphenyl-2H-tetrazolium bromide (MTT) assay, which is based on the reduction of the tetrazolium salt by mitochondrial dehydrogenases in viable cells. Cells were dispensed in a 96-well sterile microplate (5 × 10^4 cells/well) and incubated at 37 °C with a series of different concentrations, in DMSO, of each tested compound or doxorubicin (positive control) for 48 h in a serum-free medium prior to the MTT assay. After incubation, media were carefully removed, and 40 µL of MTT (2.5 mg/mL) were added to each well and then incubated for an additional 4 h. The purple formazan dye crystals were solubilized by the addition of 200 µL of DMSO. The absorbance was measured at 570 nm using a Spectra Max Paradigm Multi-Mode microplate reader. The relative cell viability was expressed as the mean percentage of viable cells compared to the untreated control cells. All experiments were conducted in triplicate and repeated on three different days. All the values were represented as mean ± SD. IC50s were determined by probit analysis by SPSS Incprobit analysis (IBM Corp., Armonk, NY, USA).

[2] = test system: A549 (human lung carcinoma) cells; assay: MTT cytotoxicity assay, A549; type: cell-based; conditions: 48 h, read-out: IC50 (µM) ± SD A549
Experimental: as §1, §2, §3

[3] = target: T1, CDK2/cyclin A2 protein kinase (Homo sapiens, UniProt P24941); assay: CDK2/cyclin A2 kinase assay (Promega Kinase-Glo Plus luminescence kit); type: biochemical
From the text: It measures kinase activity by quantitating the amount of ATP remaining in solution following a kinase reaction. The luminescent signal from the assay is correlated with the amount of ATP present and is inversely correlated with the amount of kinase activity. […] The computer software Graphpad Prism was used for analyzing the luminescence data. The difference between luminescence intensities in the absence of CDK2/cyclin A2 protein kinase (Lut) and in the presence of kinase (Luc) was defined as 100% activity (Lut − Luc). Using luminescence signal (Lu) in the presence of the compound, the percentage of activity was calculated as: % activity = {(Lut − Lu)/(Lut − Luc)} × 100%, where Lu = the luminescence intensity in the presence of the compound.

[4] = test system: HepG2 (human hepatocellular carcinoma) cells; assay: MTT cytotoxicity assay, HepG2; type: cell-based; conditions: 48 h, read-out: IC50 (µM) ± SD HepG2
Experimental: as §1, §2, §3

[5] = test system: MCF-7 (human breast adenocarcinoma) cells; assay: MTT cytotoxicity assay, MCF-7; type: cell-based; conditions: MCF7, 48 h, read-out: IC50 (µM) ± SD MCF-7
Experimental: as §1, §2, §3

[6] = target: T1, CDK2/cyclin A2 protein kinase; set-up: method as in PMID 33390512, PMID 22119131; conditions: external test set of QSAR model, reported compounds V, VI; read-out: Experimental Activity (IC50/μM); cited from earlier work
[7] = CDK2/cyclin A2, Kinase-Glo Plus luminescence, read-out: CDK2 IC50 (µM) ± SD

Row | SMILES | IC50 [1] [µM] | IC50 [2] [µM] | melting point [°C] | IC50 [3, 7] | IC50 [4] [µM] | IC50 [5] [µM] | IC50 [6] [µM] | IC50 ([3]; external test set of QSAR model, compound 8, CDK2, read-out: Experimental Activity (IC50/μM)) [µM]
1 | COc1cccc2c1C(=O)c1c(O)c3c(c(O)c1C2=O)C[C@@](O)(C(=O)CO)C[C@@H]3O[C@H]1C[C@H](N)[C@H](O)[C@H](C)O1 [Doxorubicin, reference compound] | 40 ± 3.9 |  |  |  |  |  |  | 
2 | N#Cc1c(-c2cccs2)cc(-c2ccc3ccccc3c2)nc1OC1=NC(=S)NC1 [compound 3, 6-(Naphthalen-2-yl)-4-(thiophen-2-yl)-2-((2-thioxo-2,5-dihydro-1H-imidazol-4-yl)oxy)nicotinonitrile] | 49 ± 5.1 | 57.4 ± 4.5 | 172 to 173 | 1.01 ± 0.1 µM | 44.8 ± 4.1 | 37.3 ± 4.1 |  | 
3 | CCOC(=O)COc1nc(-c2ccc3ccccc3c2)cc(-c2cccs2)c1C#N [compound 13] | 32.4 ± 3.1 | 45.9 ± 4.3 |  | 4.45 ± 0.2 µM | 30.2 ± 3.7 | 37.6 ± 3.5 |  | 
4 | N#Cc1c(-c2cccs2)cc(-c2ccc3ccccc3c2)nc1Cl [compound 4, 2-chloro-6-(naphthalen-2-yl)-4-(thiophen-2-yl)nicotinonitrile] | 45.9 ± 4.1 | 67.2 ± 5.1 |  | 0.24 µM and 0.236 µM | 42.9 ± 3.9 | 46.2 ± 4.1 |  | 
5 | N#Cc1c(-c2cccs2)cc(-c2ccc3ccccc3c2)[nH]c1=S [compound 7] | 37.8 ± 3.9 | 36.8 ± 4.1 |  | 1.27 ± 0.1 µM | 22.7 ± 2.9 | 27.4 ± 2.4 |  | 
6 | N#Cc1c(-c2cccs2)cc(-c2ccc3ccccc3c2)[nH]c1=O [compound 1, 6-(naphthalen-2-yl)-2-oxo-4-(thiophen-2-yl)-1,2-dihydropyridine-3-carbonitrile] | 39.1 ± 4.2 | 60.6 ± 4.8 |  | 0.57 ± 0.1 µM | 27.9 ± 3.1 | 47 ± 4.5 |  | 
7 | N#Cc1c(-c2cccs2)cc(-c2ccc3ccccc3c2)nc1SC(=O)CCl [compound 11, S-(3-Cyano-6-(naphthalen-2-yl)-4-(thiophen-2-yl)pyridin-2-yl)2-chloroethanethioate] | 31.7 ± 3.5 | 56.9 ± 4.6 | 160 to 161 | 0.5 µM and 0.504 µM | 27.6 ± 3.3 | 46.4 ± 4.3 |  | 
8 | O=c1[nH]cnc2c1oc1nc(-c3ccc4ccccc4c3)cc(-c3cccs3)c12 [compound 15, 7-(Naphthalen-2-yl)-9-(thiophen-2-yl)pyrido[3′,2′:4,5]furo[3,2-d]pyrimidin-4(3H)-one] |  |  | 197 to 198 |  |  |  |  | 
9 | CCOC(=O)c1oc2nc(-c3ccc4ccccc4c3)cc(-c3cccs3)c2c1N [compound 14, Ethyl-3-amino-6-(naphthalen-2-yl)-4-(thiophen-2-yl)furo[2,3-b]pyridine-2-carboxylate] | 31.3 ± 3.3 | 56.5 ± 4.8 | 185 to 186 | 0.93 µM and 0.928 µM | 27.9 ± 3.5 | 26.1 ± 3.9 |  | 
10 | N#Cc1c(-c2cccs2)cc(-c2ccc3ccccc3c2)nc1OC(=O)CCl [compound 2, 3-Cyano-6-(naphthalen-2-yl)-4-(thiophen-2-yl)pyridin-2-yl 2-chloroacetate] | 43.5 ± 4.5 | 70.7 ± 4.1 | 165 to 166 | 1.79 ± 0.1 µM | 29.4 ± 3.5 | 21.3 ± 3.1 |  | 
11 | COc1nc(-c2ccc3ccccc3c2)cc(-c2cccs2)c1C#N [compound 5, 2-Methoxy-6-(naphthalen-2-yl)-4-(thiophen-2-yl)nicotinonitrile] | 33.8 ± 3.5 | 47.6 ± 4.5 | 125 to 126 | 3.53 ± 0.2 µM | 27.2 ± 3.1 | 55.5 ± 4.5 |  | 
12 | Oc1nc(-c2cccs2)c2sc(=S)[nH]c2n1 [V] |  |  |  |  |  |  | 0.743 | 
13 | N#Cc1c(N)nc2[nH]c(=S)sc2c1-c1cccs1 [VI] |  |  |  |  |  |  | 0.139 | 
14 | Nc1n[nH]c2nc(-c3ccc4ccccc4c3)cc(-c3cccs3)c12 [compound 8, 6-(Naphthalen-2-yl)-4-(thiophen-2-yl)-1H-pyrazolo[3,4-b]pyridin-3-amine] | 33.7 ± 3.3 | 43.8 ± 4.1 | 175 to 176 | 0.65 µM and 0.651 µM | 29.1 ± 3.5 | 19.3 ± 2.1 |  | 0.651
15 | N#Cc1c(-c2cccs2)cc(-c2ccc3ccccc3c2)nc1Nc1ccccc1 [compound 6, 6-(Naphthalen-2-yl)-2-(phenylamino)-4-(thiophen-2-yl)nicotinonitrile] |  |  | 130 to 131 |  |  |  |  | 
